system: PC-3 prostate breast cancer cells; assay: EDR assay, anti-proliferation against PC-3 cells (3H-thymidine incorporation in soft agar); format: cell-based; settings: Homo sapiens, PC3 cell line, five days incubation, 3H-TdR incorporation
Procedure: Compounds prepared according to Examples 1-7 were tested for anti-proliferation against PC-3 prostate […] cancer cells. Butyric acid and trichostatin, a potent HDAC inhibitor, were used as reference compounds. Both compounds were purchased from Sigma-Aldrich, Milwaukee, Wis.
The PC3 cell line was maintained in RPMI supplemented with 10% fetal calf serum and antibiotics. The EDR assay was performed as described by Kern and Weisenthal in “Highly Specific Prediction of Antineoplastic Drug Resistance With An In Vitro Assay Using Suprapharmacologic Drug Exposures,” J. Nat. Cancer Inst., 82:582-588 (1990); and Fruehauf and Bosanquet, “In vitro Determination of Drug Response: A Discussion of Clinical Applications,” PPO Updates 7(12):1-16 (1993). Cells were suspended in 0.12% soft agar in complete medium and plated (2,000 cells per well, as determined by preliminary experiments) in different drug concentrations onto a 0.4% agarose underlayer in 24-well plates. Plating cells on agarose underlayers supports the proliferation only of the transformed cells, ensuring that the growth signal stems from the malignant component of the tumor.
All compounds were dissolved in DMSO to 200× stock solutions. Stock solutions were diluted to 20× working solutions using the tissue culture medium, serially diluted and added to the 24-well plates. The concentration range was 0.001 μM to 0.3 μM for trichostatin and 10 μM-1,000 μM for the other compounds. No significant changes in pH of the culture medium were observed under the above conditions. Diluent control wells contained PC3 cells treated with DMSO, at the dilutions used for appropriate drug treatment. All experimental points were represented by two separate wells (duplicates). Positive controls were determined using at least two wells treated with an extremely high dose of cisplatin, an anti-cancer agent. Four wells containing tumor cells that were not treated with drugs served as negative controls in each experiment.
Cells were incubated with drugs under standard culture conditions for five days. Cultures were pulsed with tritiated thymidine (^3H-TdR, New Life Science Products, Boston, Mass.) at 5 μCi per well for the last 48 hours of the culture period. Cell culture plates were then heated to 90° C. to liquefy the agarose, and cells were harvested onto glass fiber filters, which were then placed into counting vials containing liquid scintillation fluid. The radioactivity trapped on the filters was counted with a Beckman scintillation counter. The fraction of surviving cells was determined by comparing ^3H-TdR incorporation in treated (experimental points) and untreated (negative control) wells. All drug concentrations are presented as μM, allowing for normalization of drug response curves and direct comparison of the effects of the drugs. Microsoft Excel was used to organize the raw data on EDR experiments, and the SigmaPlot program was utilized to generate drug response curves. All drug response curves were as approximated as sigmoidal equations (characteristic for typical drug response curves) to fit the data. IC50 values were determined using the approximated sigmoidal curves and expressed as μM.

SMILES | IC50
CC(=O)OCOC(=O)CCCC1CCCCC1 [4-cyclohexanebutyroyloxymethyl acetate] | 23.2 µM
CC(=O)OCOC(=O)C=CC=Cc1ccccc1 [5-phenyl-2,4-pentadienoyloxymethyl acetate] | 20 µM
CC(=O)OCOC(=O)CSCc1ccccc1 [S-benzylthioglycoloyloxymethyl acetate] | 28.4 µM
CC(=O)OCOC(=O)CC=CC=Cc1ccccc1 [6-phenyl-3,5-hexadienoyloxymethyl acetate] | 18 µM
CC(=O)OCOC(=O)C=Cc1ccccc1 [cinnamoyloxymethyl acetate] | 12.5 µM
CCCC(=O)O [butyric acid, reference compound] | > 2000 µM
CC(/C=C/C(=O)NO)=C\[C@@H](C)C(=O)c1ccc(N(C)C)cc1 [trichostatin, reference compound] | 0.005 µM
CC(=O)OCOC(=O)C=CSc1ccccc1 [3-(phenylthio)acryloyloxymethyl acetate] | 30 µM
CC(=O)OCOC(=O)C#Cc1ccccc1 [phenylpropioloyloxymethyl acetate] | 25 µM

From patent US6699902B2, “Acetyloxymethyl esters and methods for using the same” (Beacon Laboratories, Inc., priority 2000, dated 2004)
